One may read the Tmax as the time from dosing to the highest level.

Entries after “also recorded” stand apart in the source; their conditions may differ.

Data set [1] is described as follows: In vitro metabolic stability in human liver microsomes. It counts as in vitro ADME. The procedure:
(§1) Measurements of metabolic stability can be performed with liver microsomes, which are known to contain the major drug-metabolizing enzymes and UDP-glucuronosyltransferase (Baranczewski et al., [2006]). The in vitro metabolic stability levels of CS7171 and JKF-034 were measured using human, monkey, and mouse liver microsomes. The metabolic half-time (T1/2) and intrinsic clearance (Clint) were assayed using LC-MS analysis. Ketanserin is a potent, orally effective antagonist of endogenous serotonin. Its pharmacological profile is well studied (Brogden and Sorkin, [1990]). In this study, we used ketanserin as a control. If the T1/2 of the tested compound was 30–120 min, the compound was considered to show moderate metabolism in liver microsomes. If the T1/2 value was less than 30 min, the compound was considered to be susceptible to metabolism in liver microsomes.
(Microsomes from liver hold many membrane-bound enzymes, among them those of drug oxidation.)

Data set [2] can be described thus: In vitro metabolic stability in mouse liver microsomes. In kind it is in vitro ADME. The procedure: as §1
For another data set, the system named is APP/PS1 mice. In words: Morris water maze (MWM) spatial learning in AD mice. It counts as in vivo, mouse. The following applies: APP/PS1 mice (eight-month-old); oral CS7171 50 mg/kg, CS7170 50 mg/kg, JKF-034 40 mg/kg once per day. The protocol:
Mice were treated with EHop-016 (10 mg/kg), CS7170 (50 mg/kg), CS7171 (50 mg/kg), and JKF-034 (40 mg/kg). These drugs were dissolved in saline (0.9% NaCl) containing 0.5% Tween-80 (Sigma P4780). Each mouse received 200 μL of the solution by intragastric administration once per day (administered at 9:00 am). The drug administration was started seven days before the beginning of the Morris water maze (MWM) task and was continued until the end of the assay. All control groups were fed with vehicle solution.
The MWM test, a classic paradigm used to study spatial reference memory, was performed (Vorhees and Williams, [2006]). Briefly, a circular polypropylene water tank (120 cm in diameter) was filled with opaque water and milk (20 °C ± 1 °C) and a transparent platform (15 cm diameter) was submerged (2 cm below the water surface) in the center of one of the four virtually divided quadrants. Distal cues were fixed on the wall of the tank as spatial references. For the classic training paradigm (Figs. 2 and 6), mice were allowed to find the platform within 60 s and to remain on it for at least 5 s. For the modified training paradigm (Fig. 3A), mice were trained over 5 consecutive sessions with a 1-h intervals within one day. After training, mice were returned to their home cages and the memory of the location of the platform was tested at 6 h after training (Fig. 3C–D). A mouse behavior tracking software (ANY-maze software) was used to record data automatically.

The next data set relates to Aβ42. In words: Aβ42 level by Western blot (6E10 antibody) after drug administration. It counts as in vivo, APP/PS1 mice. The following applies: for level of Aβ42 monomer: 7-month-old APP/PS1 mice, two weeks of P.O administration. The procedure: The hippocampal tissues from human subjects and mice were harvested and stored in a liquid nitrogen tank for biochemical assay. The tissues were homogenized in cold lysis buffer (Merck-Millipore, 20-168). The insoluble debris were removed after centrifugation at 13,000 rpm (for 10 min, at 4 °C). For GTP-bound Rac/Cdc42, lysates were incubated with GST-tagged PAK (p21-activated kinase)-PBD agarose beads (Cytoskeleton, PAK02) overnight at 4 °C. On the second day, the beads were washed three times with lysis buffer before subjecting them to SDS-PAGE (15%) and transferring them onto nitrocellulose membranes (Millipore, HATF00010). The membranes were incubated with primary antibodies (for Rac1: BD Transduction Laboratories, #610650, 1:2,000 dilution; for Cdc42, Santa Cruz Biotechnology, lot No. sc-8401, 1:500 dilution) overnight at 4 °C and with HRP-conjugated goat anti-mouse IgG (Cell Signaling Technology, #7076) for 1 h at room temperature. Intensities of the detected bands were analyzed using ImageJ software (National Institutes of Health). The total amount of Rac1 in the lysate was detected using a routine Western blot procedure. RhoA-GTP levels were measured by using the Rho-GTP monoclonal antibody (New East, lot No. 26904, Dilution: 1:1,000). Information regarding the other antibodies used is as follows: anti-RhoA (67B9), Cell Signaling, lot No. #2117, dilution: 1:1,000; anti-Actin, Clone C4, Millipore, lot No. #3018859, dilution: 1:2,000; anti-Amyloid 1-42 6E10, BioLegend, lot No. 803001, dilution: 1:1,000; anti-Phospho-PAK1 ([…])/PAK2 ([…]), Cell Signaling, lot No. #2606, dilution: 1:1,000. page 2: A Representative […] blot of AE42 detected by AE42 monoclonal antibody (6E10) after two weeks of administration (P.O) of CS7171 and JKF-034 in 7-month-old APP/PS1 mice. B The level of AE42 monomer was decreased by JKF-034. […] D Representative […] blot of total RhoA, total Cdc42, RhoA-GTP, and Cdc42-GTP after two weeks of drug administration (P.O) of CS7171 and JKF-034 in 7-month-old APP/PS1 mice. […] Data information: All values are expressed as mean r SEM.
Background: Immunoblotting shows a protein as a band on a membrane.

Data set [3] is described as follows: Pharmacokinetics study in CD1 mice. In kind it is in vivo. The note with it: for AUC0-infinity / AUC0-t / T1/2 / Tmax / F (bioavailability): CD1 mice; for AUC0-infinity / AUC0-t / T1/2 / Tmax: plasma, estimated value, n = 3; for AUC0-infinity / AUC0-t / T1/2: P.O 50 mg/kg CS7171, 40 mg/kg JKF-034 (I.V 10 and 2.5 mg/kg), route of the parameter not stated; for Tmax: P.O 50 mg/kg CS7171, 40 mg/kg JKF-034; for F (bioavailability): P.O 50 mg/kg vs I.V 10 mg/kg CS7171, P.O 40 mg/kg vs I.V 2.5 mg/kg JKF-034. The protocol: For the CS7171 and JKF-034 pharmacokinetics (PK) assays, 30 CD1 mice were purchased from JH Laboratory Animal Co. LTD (Qualification No: SCXK (SH) 2017-001220170012002565). A total of 18 CD1 mice were grouped for intravenous injection (I.V) with 10 mg/kg CS7171 and 2.5 mg/kg JKF-034. Sampling was performed at 0.083, 0.25, 0.5, 1, 3, 6 and 24 h after administration. A total of 12 CD1 mice were grouped for oral administration (P.O) of 50 mg/kg CS7171 and 40 mg/kg JKF-034. Sampling was performed at 0.25, 0.5, 1, 3, 6 and 24 h after administration. The blood samples were maintained in wet ice first and centrifuged to obtain plasma within 15 min post-sampling. Subsequently, the samples were subjected to LC-MS/MS analysis.

Data set [4] is described as follows: In vitro metabolic stability in monkey liver microsomes. It counts as in vitro ADME. The procedure:
as §1

For `O=C1NN(c2ccc(Cl)c(Cl)c2)C(=O)C1=Cc1ccc(O)c(N(O)O)c1` [CS7171], in data set [1], the Clint is 407.54 mL/min/kg and the T1/2 is 4.27 min. Besides, in data set [2], the Clint was determined as 477.87 mL/min/kg and the T1/2 is on record as 11.42 min. In addition, the “MWM learning deficit / spatial memory” value with APP/PS1 mice is recorded as “mitigated learning deficits; also recorded: rescued; also recorded: effective”. Besides, the “level of Aβ42 monomer” value in the data set with Aβ42 is “did not aff ect”. For the same compound, in data set [3], the AUC0-infinity is on record as 4,160 h*ng/mL, the AUC0-t is recorded as 4,101 h*ng/mL, the T1/2 was 56.6 min and the Tmax is 15 min. Besides, the “F (bioavailability)” value in data set [3] is given as 28.2%. Also, in data set [4], the Clint is recorded as 229.15 mL/min/kg and the T1/2 stood at 8.85 min.
In data set [1], `O=S(=O)(c1ccccc1)N1CCN(Cc2ccccc2)CC1` [JKF-034] displayed a Clint of 95.92 mL/min/kg and a T1/2 of 18.12 min. In addition, in data set [2], the Clint was 4,702.82 mL/min/kg and the T1/2 turned out to be 1.16 min. Moreover, the “MWM learning deficit / spatial memory” value in the data set on APP/PS1 mice was “effective; also recorded: rescued”. Further, the “level of Aβ42 monomer” value in the data set with Aβ42 is “decreased”. Moreover, the Aβ42 accumulation result with Aβ42 (APP/PS1 mice, Fig. S4A–C) is given as “reduction”. Besides, the “metabolic half-time (T1/2) of JKF-034 relative to CS7171” value in data set [3] (CD1 mice PK) is listed as “about ten times higher than that of CS7171”. Also, in data set [3], the AUC0-infinity is given as 1,692 h*ng/mL, the AUC0-t is on record as 1,262 h*ng/mL, the T1/2 is 551 min and the Tmax was 30 min. In addition, the “F (bioavailability)” value in data set [3] is listed as 19.3%. In addition, in data set [4], the Clint is recorded as 401.14 mL/min/kg and the T1/2 stood at 5.05 min.
